Test [1] relates to CEA-specific IgG response. The experiment in a line: ADA against CEA-IL2v in hIgG1 Tg mice over time, ELISA (Example 4, 63 days). The test is classed as in vivo, C57BL/6-Tg (hIgG1,k,l) mice. To be noted: 40 mg/kg/day via food admix, primary and memory response, samples to day 63, vs vehicle. The method, then: 15-week-old mice C57BL/6-Tg (hIgG1,k,l) and C57BL/6 wild type mixed gender were purchased from Taconic (Denmark) and housed at the animal facilities in room with air-conditioned under a 12 hours light/dark cycle in macrolon boxes with enriched environment and free access to water and food. 7×10 μg of CEA-IL2v (Batch no GLI0144-01) were injected at day 0, 4, 7, 11, 14, 18 and 21 for the primary response, and at day 49, 53, 56 and 60 for the memory response. The CEA-112v injections were done subcutaneously in the right flank or the left flank alternatively. The dosage of (2S,4R)-4-[4-(1-methyl-1H-pyrazol-4-yl)-2-trifluoromethyl-benzenesulfonyl]-1-(1-trifluoromethyl-cyclopropanecarbonyl)-pyrrolidine-2-carboxylic acid (1-cyano-cyclopropyl)-amide consumption was 40 mg/kg/day. […]
Nunc Maxisorp flat-bottom 96 well ELISA plates were coated with 100 μl per well of Humira or CEA-PGLALA respectively at 5 μg/mL in NaHCO3100 mM buffer overnight at +4° C. […] 100 μl of substrate P-nitrophenyl phosphate ready to use (Life Technologies, Cat no 002212) were added per well and after 10 min incubation at room temperature, the OD at 405 nm was read as an end-point measurement with a Versamax ELISA reader.
A general note: An ELISA detects its analyte on a solid surface through an enzyme-linked reagent.

Test [2] concerns CEA-specific IgG response. Kind of test: ADA against CEA-IL2v in wild-type mice, ELISA (Example 1, 28 days). The test is classed as in vivo, C57BL/6 wild type mice. To be noted: 40 mg/kg/day via food admix from one week before first immunization until day 28, vs vehicle. The method, then:
15-week-old mice C57BL/6 wild type and C57BL/6-Tg (hIgG1,k,l) were purchased from Taconic (Denmark) and housed at the animal facilities under a 12 hour (h) light 12 h dark cycle with cycles of air ventilation and free access to water and food. 7×10 μg of CEA-112v or 7×10 μg of Humira (Adalimumab, Abbvie Germany GmbH) were injected respectively at day 0, 4, 7, 11, 14, 18 and 21 subcutaneously in the right flank or the left flank alternatively. The dosage of the cathepsin S inhibitor consumption was 40 mg/kg/day. The food admix (Ssniff Spezialdiäten, Germany) was given daily one day before the first immunization until day 28 for the mice immunized with Humira. The food admix was given daily one week before the first immunization until day 28 for the mice immunized with CEA-IL2v (R06895882). At day −12, 7, 14 and 28 blood samples were taken.
Nunc Maxisorp flat-bottom 96 well ELISA plates were coated with 100 μl per well of Humira or CEA-PGLALA (3.42 mg/ml, ID 8037) respectively at 5 μg/mL in NaHCO3100 mM buffer overnight at +4° C. The next day the ELISA plates were washed 3 times with PBS+0.05% Tween. […] 100 μl of substrate P-nitrophenyl phosphate ready to use (Life Technologies Cat no 002212) were added per well and after 10 min incubation at room temperature, the OD at 405 nm was read as an end-point measurement with a Versamax ELISA reader.

Each structure is given as a SMILES string. “Also recorded” adds a separate entry of the source.

On to `Cn1cc(-c2ccc(S(=O)(=O)[C@@H]3C[C@@H](C(=O)NC4(C#N)CC4)N(C(=O)C4(C(F)(F)F)CC4)C3)c(C(F)(F)F)c2)cn1` [cathepsin S inhibitor, (2S,4R)-4-[4-(1-methyl-1H-pyrazol-4-yl)-2-trifluoromethyl-benzenesulfonyl]-1-(1-trifluoromethyl-cyclopropanecarbonyl)-pyrrolidine-2-carboxylic acid (1-cyano-cyclopropyl)-amide], for which the “ADA to CEA-IL2v (CEA-specific IgG) over time” value in test [1] was “prevents ADA to CEA-IL2v in hIgG transgenic mice”. In test [2], the “ADA to CEA-IL2v (CEA-specific IgG)” value is listed as “reduces its levels in wild-type mice; also recorded: only partial reduction of ADA”.

The values above are taken from patent publication US12419862B2, “Use of a cathepsin s inhibitor against the formation of anti-drug antibodies” (Hoffmann-La Roche Inc., priority 2018, dated 2025).
